Measured values taken from patent US9512139B2, “Conformationally constrained, fully synthetic macrocyclic compounds” (POLYPHOR AG, priority 2009, dated 2016).
Where two headings read alike, the source gives them in different places.

How the values were obtained:
[1] = amide bond
[2] = Metabolic stability assay, human microsomes; type: in vitro ADME; details: human, microsomes; for half-life at 10 µM: both sexes; for Metabolic Stability 60 min hum [% remain.]: both, 1 h, 10 µM
[3] = in vitro; type: in vitro ADME, mouse; details: both, CD-1, mouse, plasma, 10 µM; for Plasma Stability 240 min mouse [% remain.]: 4 h
[4] = target: T1, Prostaglandin F (FP) Receptor (Homo sapiens, UniProt P43088); test: Ca2+ assay (FLIPR) for the GPCR prostaglandin F (FP) receptor, agonist and antagonist mode; type: cell-based
T1 construct: host or cells: Ca2+ optimized hematopoietic cell lines (rat)
T1 sequence (P43088 whole entry): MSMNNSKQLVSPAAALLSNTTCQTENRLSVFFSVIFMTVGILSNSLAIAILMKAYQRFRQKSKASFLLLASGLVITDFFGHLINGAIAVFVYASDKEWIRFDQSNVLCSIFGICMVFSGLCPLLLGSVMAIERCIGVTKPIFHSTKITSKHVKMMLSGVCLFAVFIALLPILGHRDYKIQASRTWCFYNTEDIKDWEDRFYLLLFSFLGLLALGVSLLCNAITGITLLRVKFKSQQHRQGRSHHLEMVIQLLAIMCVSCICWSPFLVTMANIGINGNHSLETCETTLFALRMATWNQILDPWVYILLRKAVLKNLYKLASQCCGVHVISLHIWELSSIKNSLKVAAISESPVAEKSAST
Method: Biological and Pharmacological Methods 1. Ca^2+ Assays for the GPCRs Motilin Receptor, Prostaglandin F (FP) Receptor, 5-hydroxytryptamine 2B (5-HT2B) Receptor, and Purinoreceptor P2Y1
Assays were performed using on a FLIPR^TETRA fluorometric imaging plate reader (Molecular Devices) with ScreenWorks Version 2 (Molecular Devices) as device operating and data analysis software.
Dose dependent agonist and antagonist activities were determined. Percentage activation and percentage inhibition values were determined.
Percentage activation was determined upon initial addition of the sample compounds followed by 10 minutes incubation at 25° C. Following compound incubation, reference agonists were added at EC80 to determine percentage inhibition.
Reference agonists were purchased from reputable commercial vendors and prepared according to each ligand's specifications. All handling of ligands were done to ensure proper control throughout the experiments.
Example compounds were weighed on a Microbalance (Mettler MX5) and dissolved in 100% DMSO to a final concentration of 2.5 mM and subsequently diluted into the assay buffer.
The Assay buffer was a supplemented HBSS (Hank's Balanced Salt Solution). HBSS was supplemented with 20 mM HEPES (4-(2-hydroxyethyl)-piperazin-1-ethansulfonic acid) and 2.5 mM Probenecid (Sigma P8761).
GPCR assays were performed using Ca^2+ optimized hematopoietic cell lines (rat) with cultures never exceeding 90% confluency. Cells were harvested and seeded (from cultures at less than 90% confluency) at 50000 cells/well for a 96-well plate (12500 cells/well for 384). After seeding, the assay plates were incubated for forty-five (45) minutes at room temperature. After room temperature incubation, the assay plates were incubated at 37° C. 5% CO2 for 24 hours prior to assaying.
All GPCR assays were performed using Fluo-8 Ca^2+ dye. Ca^2+ dye was prepared at 1× dye concentration in GPCR assay buffer. After 24 hours of incubation, cells were washed with GPCR assay buffer, and then Ca^2+-dye (100 μL/well) was added.
The plates were incubated for 90 minutes at 30° C. 5% CO2 prior to FLIPR assay.
Compound plates were prepared to add 50 μL/well during the agonist assay mode. During the FLIPR assay, 50 μL/well from the compound plate was diluted 3-fold into the existing 100 μL/well from the dye loading step. Therefore all compounds were prepared as 3× the final concentration desired in the assay.
After completion of the first single addition assay run, assay plate was removed from the FLIPR Tetra and placed at 25° C. for seven (7) minutes before antagonist assay.
Using the EC80 values determined during the agonist assay, all pre-incubated sample compound and reference antagonist (if applicable) wells were stimulated at the EC80 of the reference agonist. As reference ligands for the first three assays their obvious natural ligands motilin, prostaglandin F2α, and serotonin (5-HT, 5-Hydroxytryptamine) were used; and for the P2Y1 assay 2MeSATP (2-methyl-thio-adeno-sine 5′-triphosphate, i.e. (2R,3S,4R)-5-(6-amino-2-methylsulfanyl-purin-9-yl)-3,4-dihydroxy-tetrahydrofuran-2-yl]methyl (hydroxy-phosphonooxy-phosphoryl)hydrogen phosphate) was applied.
After the addition of the reference agonist fluorescence was monitored for 180 sec using FLIPR Tetra.
Data Analysis and Results:
From the FLIPR data, with negative control correction enabled, the maximum statistic for each well was exported and percentage activation relative to Emax control was calculated.

[5] = in vitro; type: in vitro ADME, human; details: human, plasma; for Plasma Stability T½ [min] hum / Plasma Stability 240 min hum [% remain.]: 10 µM; for Plasma Stability 240 min hum [% remain.]: 4 h
[6] = Metabolic stability assay, CD-1 mouse microsomes; type: in vitro ADME; details: CD-1, mouse, microsomes; for half-life at 10 µM: both sexes; for Metabolic Stability 60 min mouse [% remain.]: both, 1 h, 10 µM
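Wherever Plasma Stability 240 min mouse [% remain.] is given: sodium citrate stabilized mouse plasma, parent compound quantified by HPLC/MS/MS relative to its peak area at time zero, run in triplicate.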
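Wherever Plasma Stability T½ [min] mouse is given: sodium citrate stabilized mouse plasma, parent compound quantified by HPLC/MS/MS relative to its peak area at time zero, run in triplicate.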

Structure (SMILES) | ring closure, yield of all isomers ([1]; from CNCC(=O)N1C[C@H](NC(=O)OC(C)(C)C)C[C@H]1COc1ccsc1C(=O)N(C)[C@@H](CCC(=O)O)C(=O)OCc1ccccc1, T3P, CH2Cl2, 10.0 mM, 25.0 °C, 1.0 h) [%] | ring closure, yield of all isomers ([1]; from CC(C)(C)OC(=O)N[C@@H]1CN[C@H](COc2cccc(C(=O)NCCC[C@H](NC(=O)OCc3ccccc3)C(=O)O)c2)C1, T3P, i-Pr2NEt, CH2Cl2, 5.37 mM) [%] | ring closure, yield of all isomers ([1]; from CN(CC[C@H](NC(=O)OCc1ccccc1)C(=O)O)C(=O)c1cccc(OC[C@@H]2C[C@H](NC(=O)OCC[Si](C)(C)C)CN2)c1, FDPP, DMF, 0.97 mM) [%] | half-life at 10 µM [2] [min] | Metabolic Stability 60 min hum [% remain.] [2] [% remain.] | Plasma Stability T½ [min] mouse [3] [min] | Plasma Stability 240 min mouse [% remain.] [3] [% remain.] | IC50 [4] [nM] | inhibition at 10 µM [4] [%] | Plasma Stability T½ [min] hum [5] [min] | Plasma Stability 240 min hum [% remain.] [5] [% remain.] | half-life at 10 µM [6] [min] | Metabolic Stability 60 min mouse [% remain.] [6] [% remain.] | half-life at 10 µM [5] [min]
CN1CC(=O)N2C[C@H](NC(=O)OC(C)(C)C)C[C@H]2COc2ccsc2C(=O)N(C)[C@H](C(=O)OCc2ccccc2)CCC1=O | 69 | – | – | – | – | – | – | – | – | – | – | – | – | –
CC(C)(C)OC(=O)N[C@H]1C[C@H]2COc3cccc(c3)C(=O)NCCC[C@H](NC(=O)OCc3ccccc3)C(=O)N2C1 | – | 71 | – | – | – | – | – | – | – | – | – | – | – | –
CN1CC[C@H](NC(=O)OCc2ccccc2)C(=O)N2C[C@@H](NC(=O)OCC[Si](C)(C)C)C[C@H]2COc2cccc(c2)C1=O | – | – | 43 | – | – | – | – | – | – | – | – | – | – | –
CN1C[C@H](NC(=O)OCc2ccccc2)C(=O)N(C)CC(=O)N2C[C@@H](NC(=O)Cc3c[nH]c4ccccc34)C[C@H]2COc2cccc(c2)C1=O [Ex. 200, benzyl N-[(4S,6S,13S)-6-{[2-(1H-indol-3-yl)acetyl]amino}-11,15-dimethyl-9,12,16-trioxo-2-oxa-8,11,15-triazatricyclo[15.3.1.0^4,8]henicosa-1(21),17,19-trien-13-yl]carbamate] | – | – | – | 27 | 12 | > 240 | 100 | 28000 | 38 | > 240 | 91 | 30 | 26 | –
CCCCCCCCCC(=O)N[C@H]1CCCN(C)C(=O)c2cccc(c2)OC[C@@H]2C[C@H](NC(=O)Nc3cccc(N(C)C)c3)CN2C1=O [Ex. 511, N-[(4S,6S,10S)-6-({[3-(dimethylamino)anilino]carbonyl}amino)-14-methyl-9,15-dioxo-2-oxa-8,14-diazatricyclo[14.3.1.0^4,8]icosa-1(20),16,18-trien-10-yl]decanamide] | – | – | – | 2 | 1 | – | – | 59 | 99 | > 240 | 100 | 14 | 14 | –
CN1CCC[C@H](NC(=O)Cc2cccc3ccccc23)C(=O)N2C[C@@H](NC(=O)Cc3ccc4ccccc4c3)C[C@H]2COc2cccc(c2)C1=O [Ex. 505, N-[(4S,6S,10S)-14-methyl-6-{[2-(2-naphthyl)acetyl]amino}-9,15-dioxo-2-oxa-8,14-diazatricyclo[14.3.1.0^4,8]icosa-1(20),16,18-trien-10-yl]-2-(1-naphthyl)acetamide] | – | – | – | 21 | 9 | > 240 | 98 | 640 | 47 | > 240 | 100 | 13 | 3 | –
CCCCCCCCCC(=O)N[C@H]1CN(C)C(=O)c2cccc(c2)OC[C@@H]2C[C@H](NC(=O)Cc3c[nH]c4ccccc34)CN2C(=O)CN(C)C1=O [Ex. 213, N-[(4S,6S,13S)-6-{[2-(1H-indol-3-yl)acetyl]amino}-11,15-dimethyl-9,12,16-trioxo-2-oxa-8,11,15-triazatricyclo[15.3.1.0^4,8]henicosa-1(21),17,19-trien-13-yl]decanamide] | – | – | – | 16 | 0 | – | – | 1700 | 78 | – | – | 17 | 4 | –
CN1CCC[C@H](NC(=O)OCc2ccccc2)C(=O)N2C[C@@H](NC(=O)Cc3ccc4ccccc4c3)C[C@H]2COc2cccc(c2)C1=O [Ex. 184, benzyl N-[(4S,6S,10S)-14-methyl-6-{[2-(2-naphthyl)acetyl]amino}-9,15-dioxo-2-oxa-8,14-diazatricyclo[14.3.1.0^4,8]icosa-1(20),16,18-trien-10-yl]carbamate] | – | – | – | 15 | 0 | > 240 | 58 | 520 | 74 | > 240 | 66 | 22 | 0 | –
CN1CCC[C@H](NC(=O)Cc2cccc(-c3ccccc3)c2)C(=O)N2C[C@@H](NC(=O)Nc3cccc(N(C)C)c3)C[C@H]2COc2cccc(c2)C1=O [Ex. 525, 2-[1,1′-biphenyl]-3-yl-N-[(4S,6S,10S)-6-({[3-(dimethylamino)anilino]carbonyl}amino)-14-methyl-9,15-dioxo-2-oxa-8,14-diazatricyclo[14.3.1.0^4,8]icosa-1(20),16,18-trien-10-yl]acetamide] | – | – | – | 16 | 13 | – | – | 94 | 99 | > 240 | 100 | 25 | 29 | –
CN1CCC[C@H](NC(=O)Cc2cccc3ccccc23)C(=O)N2C[C@@H](NC(=O)Nc3cccc(N(C)C)c3)C[C@H]2COc2cccc(c2)C1=O [Ex. 512, N-[(4S,6S,10S)-6-({[3-(dimethylamino)anilino]carbonyl}amino)-14-methyl-9,15-dioxo-2-oxa-8,14-diazatricyclo[14.3.1.0^4,8]icosa-1(20),16,18-trien-10-yl]-2-(1-naphthyl)acetamide] | – | – | – | 17 | 8 | – | – | 120 | 97 | > 240 | 86 | 12 | 10 | –
CN1CCC[C@H](NS(=O)(=O)c2ccc(-c3ccccc3)cc2)C(=O)N2C[C@@H](NC(=O)Cc3ccc4ccccc4c3)C[C@H]2COc2cccc(c2)C1=O [Ex. 527, N-[(4S,6S,10S)-10-[([1,1′-biphenyl]-4-ylsulfonyl)amino]-14-methyl-9,15-dioxo-2-oxa-8,14-diazatricyclo[14.3.1.0^4,8]icosa-1(20),16,18-trien-6-yl]-2-(2-naphthyl)acetamide] | – | – | – | 22 | 23 | – | – | 204 | 73 | – | 26 | 20 | 24 | 109
CN1CCC[C@H](NC(=O)Cc2ccc(-c3ccccc3)cc2)C(=O)N2C[C@@H](NC(=O)Nc3cccc(N(C)C)c3)C[C@H]2COc2cccc(c2)C1=O [Ex. 526, 2-[1,1′-biphenyl]-4-yl-N-[(4S,6S,10S)-6-({[3-(dimethylamino)anilino]carbonyl}amino)-14-methyl-9,15-dioxo-2-oxa-8,14-diazatricyclo[14.3.1.0^4,8]icosa-1(20),16,18-trien-10-yl]acetamide] | – | – | – | – | – | – | – | 180 | 99 | – | – | – | – | –
